The values that follow come from ChEMBL document CHEMBL1134277, “N-[3-(2-Dimethylaminoethyl)-2-methyl-1H- indol-5-yl]-4-fluorobenzamide: a potent, selective, and orally active 5-HT(1F) receptor agonist potentially useful for migraine therapy” (J Med Chem, 2001).

SMILES strings stand for the structures.

For assay [1], the target named is T1, 5-hydroxytryptamine receptor 1F (Homo sapiens) (UniProt P30939).
T1 sequence (whole entry): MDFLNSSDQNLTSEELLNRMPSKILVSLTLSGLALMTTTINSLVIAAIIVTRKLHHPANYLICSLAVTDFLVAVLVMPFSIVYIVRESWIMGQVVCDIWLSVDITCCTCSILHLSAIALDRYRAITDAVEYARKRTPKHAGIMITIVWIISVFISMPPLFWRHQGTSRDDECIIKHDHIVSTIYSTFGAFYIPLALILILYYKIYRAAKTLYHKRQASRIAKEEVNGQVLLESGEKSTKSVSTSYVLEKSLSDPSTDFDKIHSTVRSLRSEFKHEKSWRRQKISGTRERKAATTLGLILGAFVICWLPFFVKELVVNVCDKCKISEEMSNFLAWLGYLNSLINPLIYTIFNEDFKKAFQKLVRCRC
As to the kind of experiment: In vitro agonist potency against human 5-hydroxytryptamine 1F receptor. In kind it is functional.

Assay [2] is described as follows: Selectivity is the binding affinity towards human 5-HT1B receptor to that of human 5-HT1F receptor.
The target in assay [3] is T2, 5-hydroxytryptamine receptor 1F (Homo sapiens, UniProt P30939).
T2 sequence (P30939 whole entry): T1 sequence (whole entry)
As to the kind of experiment: Binding affinity towards human 5-hydroxytryptamine 1F receptor.

Assay [4] can be described thus: Selectivity is the binding affinity towards human 5-HT1D receptor to that of human 5-HT1F receptor.
The nature of assay [5]: Selectivity is the binding affinity towards human 5-HT1A receptor to that of human 5-HT1F receptor.

On to `CNS(=O)(=O)Cc1ccc2[nH]cc(CCN(C)C)c2c1`, for which, in assay [1], the Emax (commonly the greatest response seen or fitted, relative to the assay's reference) worked out at 98%.

Regarding `CN(C)CCc1c[nH]c2cccc(NC(=O)c3ccc(F)cc3)c12`, the Selectivity in assay [2] worked out at 9; in assay [4], 3; in assay [5], 3. Affinity in assay [3] was put at a Ki of 3.8 nM.
